From US20200352918A1, “COMPOUNDS AND METHODS FOR TREATING OR PREVENTING FIBROSIS” (priority 2019, published 2020)

Assays:
[1] = system: iFA phenotype of mesenchymal-like cells on 13 kPa hydrogels; experiment: iFA resolution screen (reversal of fibrosis) in the iFA model; format: cell-based, human; settings: phenotype formed over 10 days, then compounds added
Method: Signal-to-background (S/B) ratio, standard variation and variation coefficients were calculated as the signal of DMSO treated wells divided by the signal of the hit compound (AA5) treated wells. Z′ values were used to measure assay quality which was calculated by the formula of Z′=1−3(SDTotal+SDBackground)/(MeanTotal−MeanBackground)(Inglese et al., 2006) where SDTotal and MeanTotal are the standard deviation and mean of signal for DMSO treated wells, and SDBackground and MeanBackground are the standard deviation and mean of signal for AA5 treated wells. Data normalization and curve fitting were performed as previously reported (Kariv et al., 1999, J Biomol Screen 4, 27-32.). Z′ values were obtained for the number of cellular aggregates and also calculated a phenotypic cell index as the product of cell number x area/Log(number of iFA aggregates+5). Secondary screening using α-SMA and collagen deposition was employed to further ensure efficacy and resolution of the iFA phenotype of the compounds. For the resolution screen, cells were seeded in a 96-well plate as mentioned above and compounds were added at day 13 to analyze their capacity to resolve the iFA phenotype using the same readouts as above. Dose response experiments were carried out as in the secondary screen but with at least 12 steps of a 1:1 dilution resulting in final compound concentrations from 500 μM to high nanomolar ranges.
The primary assay involved plating together the iPSCs and Table 1 compounds sourced from the library on day 1 on the hydrogel and examining the phenotype on day 7 of the culture as described herein. The secondary screen repeated the assay using compound sourced commercially or from additional library materials. The dose response refers to a 20 point dose course that ranges from picomolar to millimolar concentrations. […] As described herein, the cellular phenotype parameters evaluated included size, fluorescence intensity of the iFA phenotype, the shape factor of the cells/aggregates, and the cells' viability in the presence of viability dyes (Calcein AM).

[2] = system: iFA phenotype of mesenchymal-like cells on 13 kPa hydrogels; experiment: iFA-prevention phenotypic high-content drug screen (iFA model); format: cell-based, human
Method: Mesenchymal-like cells were cultured on 13 kPa functionalized polyacrylamide gels that were prepared as follows. 187.5 μl of 40% acrylamide, 60 μl of 2% bis-acrylamide and 8.55 μl of sodium bisulfate in a final volume of 990 μl of water was incubated for 20 min at room temperature to degas the mixture. To this mixture, 0.10% ammonium persulfate and 0.15% TEMED were added, mixed and 100 μl of the solution was added onto a 0.4% 3-(Trimethoxysily) propyl methacrylate pH 3.5 treated coverslip. A 2% dimethyl dichlorosilane in chloroform treated round glass coverslip was then inverted on the acrylamide solution and allowed to polymerize for 15 min between the two surfaces. The top coverslip was gently removed, and the bottom coverslips with the hydrogel were transferred to appropriate multi-well low adherent tissue culture plate containing coupling buffer (0.1 M sodium phosphate dibasic, 0.1 M sodium phosphate monobasic) pH 8. To functionalize the hydrogel, 1 part of 0.1 M p-benzoquinone in dioxane was added to the hydrogels containing 4 parts of coupling buffer and incubated at 37° C. for 30 min. The gel was then successively washed with 20% dioxane in water, water, 0.1 M sodium acetate buffer at pH 4.0 containing 1.0 M sodium chloride, 0.1 M sodium bicarbonate solution at pH 8.5 containing 1.0 M sodium chloride, and finally with coupling buffer at pH 7.5. The hydrogels were then coated with 0.1% gelatin for 2 hrs prior to seeding the cells. Cells were seeded at a density of 3000 cells/cm^2.
A phenotypic high-content drug screen was prepared to identify compounds capable of preventing the iFA phenotype in a 96-well format. An ImageXpress XL high-throughput imager with a 4× Plan objective (N/A 0.20) was used with image based focusing. Briefly, 100 μL media were plated in each well of 96 well plate using a Thermo Multidrop non-contact dispenser. Using a custom V&P pin tool mounted to a Beckman FX liquid handler, 1.5 μL compounds or DMSO were added. Mesenchymal-like cells were added as a suspension using the Multidrop at a density of 3.5×10^3 cells/well. The resulting compound concentration was 10 μM. Cells were imaged after 7 days of incubation at 37° C. and 5% CO2: A final of 0.5 μg/ml of Calcein AM and/or 10 μg/ml propidium iodide (viability dye) with 1 μg/ml Hoechst 33342 were added and imaged using the ImageXpress XL system. Data mining was performed using a custom module consisting of the following steps: The image background was removed using a top-hat filter with 25 μm round shape polisher. Next, cellular aggregates and individual spindle-shaped cells were identified. Aggregates of cells were defined by size with a cut-off of 60 to 200 micron and an intensity of at least 200 gray scales over background. Individual spindle-shaped cells were identified as smaller objects with cut-offs from 15 to 100 micron and a lower intensity of at least 70 gray scales over background.
Additional morphometric measurements were made by counting labeled cell nuclei and measuring total area covered with cells per well. The data resulting from the screen were batch exported through MetaXpress and uploaded into a Collaborative Drug Discovery (CDD) cloud based database (Ekins and Bunin, 2013, Methods in molecular biology 993, 139-154.). Hits were selected on a cut-off of more than 3 standard deviations from mean using data normalized to reference wells in each plate. IC50 values (the half maximal inhibitory concentration) from confirmation experiments were calculated from dose-response signal curves using the Prism software (GraphPad Software).
Signal-to-background (S/B) ratio, standard variation and variation coefficients were calculated as the signal of DMSO treated wells divided by the signal of the hit compound (AA5) treated wells. […]

CNC(C)Cc1cccs1 (stereo not shown) [Methiopropamine]
Reversal of fibrosis [1]: Yes
Dose response ([2]; 20 point dose course, picomolar to millimolar): +++ (+++ = strong effect)
Efficacy in secondary screen ([2]; assay repeated with compound sourced commercially or from additional library materials): +++ (+++ = strong effect)
Efficacy in primary screen ([2]; library compound plated with cells on day 1 on hydrogel, phenotype on day 7, 10 μM): +++ (+++ = strong effect)
